For test [1], the system named is influenza virus. Format: in vivo, Kunming mice. The following applies: for Lung index (X ± S) / Lung index Inhibitive rate (%): influenza virus infected mice, 5 days.
The test system of test [2] is influenza and parainfluenza virus induced pneumonia. In words: Histomorphology observation of lung. The settings on record: high dosage and medium dosage groups, Day 5 after treatment. Format: in vivo, Kunming mice. The protocol:
On Day 5 after treatment, the lungs of mice in each group were picked, and general pathological changes of their viscera are observed by naked eyes and are recorded. The lungs were rinsed with normal saline and moisture thereon is sucked up by using filter paper, a part of the lung was fixed with 10% formaldehyde and embedded with paraffin and sliced, and the lung tissue slices were stained with HE, followed by observation and photographing under a microscope.

Like-named read-outs stand apart in the source and are kept apart here.

Regarding `COc1ccc([C@H]2OCC3C2CO[C@H]3c2ccc(OC)c(OC(=O)C(C)c3ccc(CC(C)C)cc3)c2)cc1OC` (some centres unmarked) [Phillygenin ibuprofen ester, phillygenin ibuprofen ester], the “Lung index (X ± S)” value in test [1] (4.0 mg/kg/d intragastric) was determined as 1.222 ± 0.040; in test [1] (8.0 mg/kg/d intragastric) it was 1.190 ± 0.061; in test [1] (13.0 mg/kg/d intragastric) it was 1.147 ± 0.048. Further, the entries for the “Lung index Inhibitive rate (%)” value in test [1] (4.0 mg/kg/d intragastric), in test [1] (8.0 mg/kg/d intragastric) and in test [1] (13.0 mg/kg/d intragastric) were 17.90%, 20.05% and 22.94%, respectively. The “effect on average lung index vs infection model group” value in test [1] (mouse, in vivo) is listed as “certain protective effect”. The “lung lesions of mice (lung histology, HE)” value in test [2] is given as “significantly alleviated”.

The values are drawn from patent publication US9963461B2, “Phillygenin ibuprofen ester, preparation method therefor, and application thereof” (priority 2014, dated 2018).
